Laboratory results as given in paper PMC4311625, “Structural determinants for binding to angiotensin converting enzyme 2 (ACE2) and angiotensin receptors 1 and 2” (Frontiers in Pharmacology, 2015).
Like-named read-outs stand apart in the source and are kept apart here. Ends that are not written are not given here. Peptide text beside a SMILES is read from it.

Columns and labels:
[1] = target: T1, ACE2 (Homo sapiens, UniProt Q9BYF1); test: ACE2 quenched fluorescence substrate (QFS) inhibition assay; format: biochemical; details: for Inhibition (%) of ACE2, AngII chimeras, 1 μM / inhibition at 1 µM: peptide 1 μM; for inhibition at 0.1 µM: peptide 0.1 μM, read-out: Inhibition (%) of ACE2, AngII chimeras, 0.1 μM; for inhibition at 1 µM: read-out: Inhibition (%) of ACE2, AngII chimeras, 1 μM
T1 sequence (Q9BYF1 18-805, species assumed): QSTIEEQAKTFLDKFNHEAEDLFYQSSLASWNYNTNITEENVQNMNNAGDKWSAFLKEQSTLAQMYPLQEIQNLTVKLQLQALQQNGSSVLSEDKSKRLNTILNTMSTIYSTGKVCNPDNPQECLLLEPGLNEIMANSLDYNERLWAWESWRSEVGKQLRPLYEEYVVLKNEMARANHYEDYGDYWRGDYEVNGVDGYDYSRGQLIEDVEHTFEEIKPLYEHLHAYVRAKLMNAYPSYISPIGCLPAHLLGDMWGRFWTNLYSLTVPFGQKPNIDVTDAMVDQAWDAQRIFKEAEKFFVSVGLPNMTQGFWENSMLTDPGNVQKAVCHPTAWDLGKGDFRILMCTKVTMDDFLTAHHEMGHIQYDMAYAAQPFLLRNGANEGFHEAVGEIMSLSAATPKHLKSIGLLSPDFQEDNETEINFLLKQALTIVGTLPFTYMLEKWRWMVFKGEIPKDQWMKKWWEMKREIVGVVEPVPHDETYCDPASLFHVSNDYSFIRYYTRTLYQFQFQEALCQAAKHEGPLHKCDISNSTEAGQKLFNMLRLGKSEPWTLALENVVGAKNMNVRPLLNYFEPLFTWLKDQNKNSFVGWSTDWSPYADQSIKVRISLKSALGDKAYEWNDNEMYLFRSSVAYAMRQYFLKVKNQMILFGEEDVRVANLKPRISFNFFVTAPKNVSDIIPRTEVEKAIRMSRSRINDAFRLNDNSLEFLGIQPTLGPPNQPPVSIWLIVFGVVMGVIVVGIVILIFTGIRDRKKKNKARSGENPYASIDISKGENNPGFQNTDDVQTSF
Experimental: Angiotensin converting enzyme 2 QFS assays were performed for 1 h in 50 uM QFS, 1 M NaCl, 100 mM Tris-Cl, pH 6.5 at 37∘C on a BMG LabTechnologies (Offenburg, Germany), FLUOStar Optima in a 96 well-plate. Subsequent data analysis determined the inhibition of native AngII, its analogs and C-terminal peptides compared to the ACE2 QFS substrate [MCA-APK(DNP)-OH, [Vickers et al., 2002]]. […] Three controls were included in each ACE2 QFS assay; AngII (100 and 10 μM), IHPF (100 μM) and a known ACE2 inhibitor (1 nM; Millennium Pharmaceuticals, Cambridge, MA, USA). QFS assay results were accepted when ACE2 inhibition by AngII (10 μM) was 80 ± 5%, IHPF was 65 ± –5% and the ([Qian et al., 1999]) ‘Millennium Inhibitor’ was 70 ± –5%. Acceptable coefficients of variation (CV; standard deviation/mean × 100) for sample triplicates were <7%.
A library of 40 tetrapeptides based on the four C-terminal residues of Ang II (Ile-His-Pro-Phe/IHPF) was generated and screened for ACE2 binding at 100 μM in order to identify key residues of the C-terminus of Ang II involved in binding to the ACE2 active site. […] Several substitutions (Val, Tyr, Ala, Gly, Phe, Trp, Pro, His, Ile, and Leu) were made in order to further probe the highly hydrophobic and cyclic specificity of the C-terminus of Ang II. A β-napthalene amino acid (Nth) derivative was used as a highly hydrophobic non-natural cyclic residue substitute, and Arg and Lys were substituted for histidine at the second position from the N-terminus of the tetrapeptide to determine if positive charge or other structural or positional requirements were important.

[2] = test system: AT2R; test: Whole cell competition binding with [125I]-Ang II, AT2R-transfected HEK-293 cells; details: relative binding, displacement of 125I-Ang II in AT2R-transfected HEK-293 cells; 100 nM (Table 6)
Experimental: The generation of plasmids expressing HA-tagged versions of the AT1R and AT2R have been previously described [Qian et al. (1999)], [D’Amore et al. (2005)]. HEK-293 cells in 12 well-plates were transfected with either AT1R or AT2R plasmids (0.6 μg/well) using lipofectAMINE (4⋅8 μl/well), as previously described [Thomas et al. (1998)] and stably expressing clones obtained by selection with G418 (1 mg/ml) and limiting dilution. HEK clones expressing either AT1R or AT2R were plated in 12 well-plates for whole cell competition binding assays using the non-selective Ang II ligand, [^125I]-Ang II and selected concentrations of Ang II, PD123319 (an AT2-selective ligand) and the various β-substituted Ang II peptides. Non-linear regression of the data was achieved using GraphPad Prism (GraphPad Software Inc., San Diego, CA, USA) to determine relative displacement of chimeric Ang II analogs as compared to ^125I-Ang II in either AT1R- or AT2R- transfected HEK-293 cells.

[3] = target: T1, ACE2; test: LC–MS ACE2 proteolytic cleavage assay; format: in vitro ADME; details: for Cleavage (%) by ACE2, 10 μM: peptide 10 μM incubated with ACE2 at 37 °C; for Cleavage (%) by ACE2, 10 μM / Cleavage (%) by ACE2, 100 μM: typically 4-5 h (5 h); for Cleavage (%) by ACE2, 10 μM / Cleavage (%) by ACE2, 100 μM / Cleavage (%) by ACE2, 1 μM: LC–MS; for Cleavage (%) by ACE2, 100 μM: peptide 100 μM incubated with ACE2 at 37 °C; for Cleavage (%) by ACE2, 1 μM: peptide 1 μM incubated with ACE2 at 37 °C, typically 4-5 h
Experimental: The first hour of the incubation was performed in the Fluorostar Optima plate reader in order to confirm previously observed level of inhibition, then for the remaining time the samples were transferred to small microfuge tubes and incubated in a water bath. The extent of ACE2 cleavage was assessed by LC–MS on an Agilent capillary HP1100, MSD VL3000 Ion-Trap system.

[4] = target: T2, AT1R (Rattus norvegicus, UniProt P25095); test: Whole cell competition binding with [125I]-Ang II, AT1R-transfected HEK-293 cells; details: relative binding, displacement of 125I-Ang II in AT1R-transfected HEK-293 cells; 100 nM (Table 6)
T2 construct: HA; expressed in transfected cells
T2 sequence (P25095 1-359): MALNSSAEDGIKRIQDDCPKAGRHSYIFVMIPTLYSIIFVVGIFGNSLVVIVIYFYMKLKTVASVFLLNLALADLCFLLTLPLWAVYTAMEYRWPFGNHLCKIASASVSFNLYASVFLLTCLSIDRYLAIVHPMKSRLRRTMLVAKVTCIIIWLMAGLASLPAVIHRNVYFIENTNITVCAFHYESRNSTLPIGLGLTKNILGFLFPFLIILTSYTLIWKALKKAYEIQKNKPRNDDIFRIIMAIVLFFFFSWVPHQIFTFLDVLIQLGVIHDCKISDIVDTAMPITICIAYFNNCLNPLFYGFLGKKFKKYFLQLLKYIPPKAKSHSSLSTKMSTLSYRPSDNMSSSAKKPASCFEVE
Experimental: The generation of plasmids expressing HA-tagged versions of the AT1R and AT2R have been previously described [Qian et al. (1999)], [D’Amore et al. (2005)]. HEK-293 cells in 12 well-plates were transfected with either AT1R or AT2R plasmids (0.6 μg/well) using lipofectAMINE (4⋅8 μl/well), as previously described [Thomas et al. (1998)] and stably expressing clones obtained by selection with G418 (1 mg/ml) and limiting dilution.

[5] = QFS assay, pH 6.5, 37 °C, 1 h, value ± spread
[6] = peptide 10 μM, QFS assay, pH 6.5, 37 °C, 1 h, value ± spread
[7] = peptide 100 μM, QFS assay, pH 6.5, 37 °C, 1 h, value ± spread
[8] = peptide 10 μM, QFS assay, pH 6.5, 37 °C, 1 h, value ± spread, read-out: Inhibition (%) of ACE2, AngII chimeras, 10 μM

| Molecule | Inhibition (%) of ACE2, AngII chimeras, 1 μM [1, 5] | Inhibition (%) of ACE2, AngII chimeras, 10 μM [1, 6] | Inhibition (%) of ACE2, AngII chimeras, 100 μM [1, 7] [%] | AT2R binding (%) [2] [%] | Cleavage (%) by ACE2, 10 μM [3] [%] | Cleavage (%) by ACE2, 100 μM [3] | AT1R binding (%) [4] [%] | inhibition at 0.1 µM [1, 5] [%] | inhibition at 1 µM [1, 5] [%] | inhibition at 10 µM [1, 8] [%] | Cleavage (%) by ACE2, 1 μM [3] [%] | further results |
| --- | --- | --- | --- | --- | --- | --- | --- | --- | --- | --- | --- | --- |
| DRVYIYPβF | –1 ± 6.8% | completely abolished | 53 ± 1.9 | 25 | 0 ± 0 | complete resistance to proteolytic cleavage | 30 |  |  |  |  | Inhibition (%) of ACE2, AngII chimeras, 10 μM ([1]; peptide 10 μM, QFS assay, pH 6.5, 37 °C, 1 h, value ± spread, listed as DRVYI YPβF): 0 ± 5%; Cleavage (%) by ACE2, 100 μM ([3]; listed as DRVYI YPβF): 0 ± 0% |
| CC[C@H](C)[C@H](NC(=O)[C@H](Cc1ccc(O)cc1)NC(=O)[C@@H](NC(=O)[C@H](CCCNC(=N)N)NC(=O)[C@@H](N)CC(=O)O)C(C)C)C(=O)N[C@@H](Cc1cnc[nH]1)C(=O)N1CCC[C@H]1C(=O)N[C@@H](Cc1ccccc1)C(=O)O [Angiotensin II, reference compound] |  |  |  |  |  |  |  | -5 | 21 ± 6.8 | 77 ± 2.9 | 93 | inhibition at 100 µM ([1]; peptide 100 μM, 50 uM QFS, 1 M NaCl, 100 mM Tris-Cl pH 6.5, 37 °C, 1 h, triplicate, read-out: Inhibition (%) of ACE2, single and multiple residue substitution analogs (Table 2)): 97%; inhibition at 100 µM ([1]; peptide 100 μM, QFS assay, pH 6.5, 37 °C, 1 h, value ± spread, read-out: Inhibition (%) of ACE2, AngII chimeras, 100 μM): 99 ± 0.3%; inhibition at 10 µM ([1]; read-out: ACE2 inhibition by control, acceptance window of QFS assay): 80 ± 5%; Cleavage (%) by ACE2, 10 μM ([3]; listed as D1R2V3Y4I5H6P7F8): 40 ± 2%; Cleavage (%) by ACE2, 10 μM ([3]; listed as native Ang II): 40% |
| DRVYVYPβF | 2 ± 3.6% | 15 ± 9% | 59 ± 2.1 | 25 |  | complete resistance to proteolytic cleavage | 0 |  |  |  |  |  |
| DRVYVYPF |  |  |  |  | 9 ± 0.3 |  |  | 31 ± 3.5 | 84 ± 2.7 | 98 ± 0.3 | 64 | fold less cleavage by ACE2 compared to native Ang II ([3]; 10 μM, over 5 h): approximately 4 fold |
| DRVYVYβPF | 0 ± 11.4% | 42 ± 4.4% | 90 ± 0.6 | 75 | 0 ± 0 | complete resistance to proteolytic cleavage | 0 |  |  |  |  | Cleavage (%) by ACE2, 100 μM ([3]; listed as DRVY VYβPF): 0 ± 0% |
| DRVYIYPF |  |  |  |  | 18 ± 1.2 |  |  | 17 | 78 ± 2 | 96 | 85 |  |
| DRVYIYβPF | –4 ± 9.8% | 10 ± 5.8% | 72 ± 1.5 | 80 | 0 ± 0 | complete resistance to proteolytic cleavage | 0 |  |  |  |  | Cleavage (%) by ACE2, 100 μM ([3]; listed as DRVYI YβPF): 0 ± 0% |
| CC(C)[C@H](N)C(=O)N[C@@H](Cc1ccc(O)cc1)C(=O)N1CCC[C@H]1C(=O)N[C@@H](Cc1ccccc1)C(=O)O [VYPF] (H-VYPF-OH) |  |  |  |  |  |  |  |  |  |  |  | inhibition at 100 µM ([1]; 1 h, pH 6.5, read-out: Inhibition (%) of ACE2, single and multiple residue substitution analogs (Table 2)): 90% |
